Measurements as given in US4405743A, “Pyrazolylpyrimidine derivatives” (Hokko Chemical Industry Co., Ltd., priority 1981, dated 1983).
Like-named read-outs stand apart in the source and are kept apart here.

Assays:
Pyricularia oryzae [1] = type: in vivo, Pyricularia oryzae on rice plant (variety: Asahi); details: rice blast, prevention; 200 ppm; 5 days after inoculation
Pyricularia oryzae [2] = type: in vivo, Pyricularia oryzae on rice plant (variety: Asahi); details: rice blast, curative treatment; sprayed liquid 200 ppm; 5 days after spraying
Cochliobolus miyabeanus = assay: Effect of controlling rice brown spot, Experimental Example 3; type: in vivo, Cochliobolus miyabeanus on rice plant (variety: Asahi); details: sprayed liquid 500 ppm, 5 days after inoculation
Sphaerotheca friliginea = assay: Effect of controlling cucumber powdery mildew, Experimental Example 4; type: in vivo; details: sprayed liquid 200 ppm, 10 days after inoculation
Method: 10 ml of each of test liquids diluted to a predetermined concentration was sprayed over seedlings of a cucumber plant (variety: Sagami Hanpaku) grown up to the first leaf stage which has been soil cultured in an unglazed pot with a diameter of 9 cm in a green house. After allowing to stand overnight, the seedlings were sprayed for inoculation with a spore suspension of Sphaerotheca friliginea. Ten days after the inoculation, the rate of a lesion area (%) was checked and a control value was evaluated from the following equation. The degree of chemical injury against a cucumber plant was determined in the same manner as in Experimental Example.

rice plant [3] = details: blast prevention test, 200 ppm
rice plant [4] = details: blast curative test, 200 ppm
rice plant [5] = details: in vivo

Compound	Control Value (Pyricularia oryzae [1])	Control Value (Pyricularia oryzae [2])	Control Value (Cochliobolus miyabeanus)	Control Value (Sphaerotheca friliginea)	Degree of chemical injury (rice plant [3])	Degree of chemical injury (rice plant [4])	Degree of chemical injury (rice plant [5])	Degree of chemical injury (cucumber plant; in vivo)	Degree of chemical injury (cucumber plant; 200 ppm)
Cc1ccc(Oc2cc(C)nc(-n3nc(C)cc3C)n2)cc1 [Compound 13]	100%	100%	100%	100%	0	0	0	0	
Cc1cc(C)cc(Oc2cc(C)nc(-n3nc(C)cc3C)n2)c1 [Compound 29]	100%	100%	100%	100%	0	0	0	0	
Cc1cccc(Oc2cc(C)nc(-n3nc(C)cc3C)n2)c1 [Compound 12]	100%	100%	100%	100%	0	0	0	0	
Cc1cc(Oc2ccc(Cl)c(C)c2)nc(-n2nc(C)cc2C)n1 [Compound 26]	100%		100%		0		0		
Cc1cc(Oc2ccc(I)cc2)nc(-n2nc(C)cc2C)n1 [Compound 10]	100%		60%		0		0		
Cc1ccc(Sc2cc(C)nc(-n3nc(C)cc3C)n2)cc1 [Compound 16]	100%	100%	100%		0	0	0		
Cc1cc(Oc2ccc(C#N)cc2)nc(-n2nc(C)cc2C)n1 [Compound 19]	100%				0				
Cc1cc(Oc2ccc([N+](=O)[O-])c(C)c2)nc(-n2nc(C)cc2C)n1 [Compound 31]	100%	84%		77%	0	0			0
CCOC(=O)c1ccc(Oc2cc(C)nc(-n3nc(C)cc3C)n2)cc1 [Compound 22]	100%		100%		0		0		
CSc1ccc(Oc2cc(C)nc(-n3nc(C)cc3C)n2)cc1 [Compound 18]	100%		90%		0		0		
Cc1cc(Oc2cccc(C(F)(F)F)c2)nc(-n2nc(C)cc2C)n1 [Compound 21]	100%		77%	86%	0		0	0	
Cc1cc(Oc2ccc(Br)cc2)nc(-n2nc(C)cc2C)n1 [Compound 8]	100%		61%	78%	0		0	0	
Cc1cc(Oc2ccc([N+](=O)[O-])cc2)nc(-n2nc(C)cc2C)n1 [Compound 20]	82%		91%	78%	0		0	0	
Cc1cc(SC#N)nc(-n2nc(C)cc2C)n1 [Comparative Chemical 3]							5		
Cc1cc(Oc2ccc(Cl)c(Cl)c2)nc(-n2nc(C)cc2C)n1 [Compound 24]	92%	84%	89%		0	0	0	0	
